Source: ChEMBL document CHEMBL1201862, “PubChem BioAssay data set” (2004)
Calls of active or inactive are those of the source.

Tests used:
Cytochrome P450 2D6 = Cytochrome P450 2D6 (Homo sapiens, UniProt P10635); test: qHTS Assay for Inhibitors and Substrates of Cytochrome P450 2D6. [Related pubchem assays: 410 ]; type: ADME; conditions: read-out: Potency
[1] = biological target: Glyceraldehyde-3-phosphate dehydrogenase (Homo sapiens, UniProt P04406)
Bcl-2-related protein A1 [2] = biological target: T1, Bcl-2-related protein A1 (Mus musculus, UniProt Q07440); test: Bfl-1 inhibitors blocking BH3 peptide binding, confirmation, biochemical, TR-FRET, mouse Bfl-1 (AID 621);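 also: TR-FRET binding of GST-Bfl-1 to FITC-labelled Bid peptide via terbium antibody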
T1 sequence (Q07440 whole entry): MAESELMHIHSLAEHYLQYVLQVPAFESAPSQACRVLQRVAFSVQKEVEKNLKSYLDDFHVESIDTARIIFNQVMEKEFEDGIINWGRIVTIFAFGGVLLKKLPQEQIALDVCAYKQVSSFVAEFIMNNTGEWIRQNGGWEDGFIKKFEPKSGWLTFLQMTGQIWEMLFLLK

Bcl-2-related protein A1 [3] = biological target: T1, Bcl-2-related protein A1; test: Bfl-1 binding inhibitors, SAR follow-up, biochemical, fluorescence polarization (AID 1070)
Mucolipin-3 = biological target: T2, Mucolipin-3 (Homo sapiens, UniProt Q8TDD5); test: Dose response cell-based high-throughput screening assay for agonists of the transient receptor potential channel ML3 (TRPML3). [Related pubchem assays: 1526, 1424, 1448 ]; type: functional
T2 sequence (Q8TDD5 whole entry): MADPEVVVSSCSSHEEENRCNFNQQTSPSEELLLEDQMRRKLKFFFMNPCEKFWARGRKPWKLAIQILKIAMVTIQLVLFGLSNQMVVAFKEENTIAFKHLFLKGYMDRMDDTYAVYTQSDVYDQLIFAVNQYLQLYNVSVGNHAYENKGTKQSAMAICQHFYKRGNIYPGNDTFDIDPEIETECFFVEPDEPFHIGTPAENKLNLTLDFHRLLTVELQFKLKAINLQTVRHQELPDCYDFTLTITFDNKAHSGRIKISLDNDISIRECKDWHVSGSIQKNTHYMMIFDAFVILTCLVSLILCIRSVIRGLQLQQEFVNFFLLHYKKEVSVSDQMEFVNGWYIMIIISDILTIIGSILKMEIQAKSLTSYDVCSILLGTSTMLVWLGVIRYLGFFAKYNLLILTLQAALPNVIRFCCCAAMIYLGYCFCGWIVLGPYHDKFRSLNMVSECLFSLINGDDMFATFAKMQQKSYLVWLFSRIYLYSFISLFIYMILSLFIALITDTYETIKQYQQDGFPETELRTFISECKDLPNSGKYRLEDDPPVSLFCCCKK

Ion channel NompC = Ion channel NompC (Danio rerio, UniProt Q7T1G6); test: Fluorescence counterscreen assay for TRPML3 agonists: dose response cell-based high-throughput screening assay to identify agonists of the transient receptor potential channel N1 (TRPN1). [Related pubchem assays: 1526, 1424, 1448 ]; type: functional
Chain of Ion channel NompC (Q7T1G6 whole entry): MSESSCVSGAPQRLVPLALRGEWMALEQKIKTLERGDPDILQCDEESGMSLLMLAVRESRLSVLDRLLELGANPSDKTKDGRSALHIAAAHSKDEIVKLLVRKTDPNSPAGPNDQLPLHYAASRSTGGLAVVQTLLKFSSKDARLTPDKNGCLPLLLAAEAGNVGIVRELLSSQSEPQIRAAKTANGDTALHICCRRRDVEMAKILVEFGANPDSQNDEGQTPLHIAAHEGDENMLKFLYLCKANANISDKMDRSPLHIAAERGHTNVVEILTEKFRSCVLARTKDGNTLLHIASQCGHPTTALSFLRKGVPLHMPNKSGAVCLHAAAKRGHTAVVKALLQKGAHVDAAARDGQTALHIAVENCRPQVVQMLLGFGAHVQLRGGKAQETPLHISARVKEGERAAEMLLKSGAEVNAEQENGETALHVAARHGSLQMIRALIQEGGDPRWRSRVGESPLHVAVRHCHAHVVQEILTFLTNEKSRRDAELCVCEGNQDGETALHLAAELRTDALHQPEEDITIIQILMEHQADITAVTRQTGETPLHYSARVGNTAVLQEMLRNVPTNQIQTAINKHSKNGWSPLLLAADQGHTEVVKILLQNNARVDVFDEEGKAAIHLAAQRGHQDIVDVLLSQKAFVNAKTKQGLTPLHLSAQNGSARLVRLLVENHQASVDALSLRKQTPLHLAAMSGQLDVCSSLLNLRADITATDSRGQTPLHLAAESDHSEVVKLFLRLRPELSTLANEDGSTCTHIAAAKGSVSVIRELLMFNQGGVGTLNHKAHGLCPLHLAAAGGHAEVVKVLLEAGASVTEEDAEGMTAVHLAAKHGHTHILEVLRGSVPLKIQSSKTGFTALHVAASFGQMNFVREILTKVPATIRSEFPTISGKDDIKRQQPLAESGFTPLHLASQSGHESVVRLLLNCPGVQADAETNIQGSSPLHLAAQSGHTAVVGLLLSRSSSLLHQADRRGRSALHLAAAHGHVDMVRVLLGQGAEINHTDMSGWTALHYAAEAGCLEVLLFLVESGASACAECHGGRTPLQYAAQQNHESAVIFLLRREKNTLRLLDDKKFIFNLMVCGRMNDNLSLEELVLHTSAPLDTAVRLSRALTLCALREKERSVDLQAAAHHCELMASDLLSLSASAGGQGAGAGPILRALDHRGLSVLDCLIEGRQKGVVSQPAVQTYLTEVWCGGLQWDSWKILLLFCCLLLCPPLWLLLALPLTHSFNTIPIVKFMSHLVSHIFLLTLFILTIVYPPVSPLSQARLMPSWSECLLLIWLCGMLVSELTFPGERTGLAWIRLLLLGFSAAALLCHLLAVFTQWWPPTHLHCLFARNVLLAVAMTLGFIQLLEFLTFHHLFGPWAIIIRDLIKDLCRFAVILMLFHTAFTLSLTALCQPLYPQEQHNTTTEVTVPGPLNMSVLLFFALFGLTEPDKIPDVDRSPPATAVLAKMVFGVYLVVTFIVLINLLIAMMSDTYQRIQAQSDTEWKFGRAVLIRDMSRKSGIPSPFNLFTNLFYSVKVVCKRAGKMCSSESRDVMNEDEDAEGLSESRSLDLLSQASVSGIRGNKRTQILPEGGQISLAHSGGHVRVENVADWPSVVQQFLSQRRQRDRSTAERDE

[4] = cytotoxicity toward NIH3T3 fibroblasts, dose response, counter-screen, cell-based, ATP luminescence, mouse fibroblasts (AID 2010); type: functional;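 also: cells exposed to compound for about 90 hours before reading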
[5] = inhibitors of intracellular T. cruzi replication, confirmation, NIH3T3 host cells, beta-gal luminescence (AID 2044); type: functional, cell-based;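 also: intracellular parasites grown in NIH/3T3 mouse fibroblasts as host cells; luminescent beta-galactosidase reporter signal from transgenic T. cruzi replicating inside host cells; inhibitors lower the luminescence signal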
[6] = biological target: T3, Lytic switch protein BZLF1 (Epstein-Barr virus (strain B95-8) (HHV-4) (Human herpesvirus 4), UniProt P03206); test: EBV ZTA inhibitors, dose response, counter-screen for EBNA-1 inhibitor project, biochemical, fluorescence polarization, Epstein-Barr virus, 1536-well (AID 2377); set-up: species or system human gammaherpesvirus 4;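 also: fluorescence polarization of Cy5-labelled ZRE DNA probe bound by purified Zta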
T3 sequence (P03206 whole entry): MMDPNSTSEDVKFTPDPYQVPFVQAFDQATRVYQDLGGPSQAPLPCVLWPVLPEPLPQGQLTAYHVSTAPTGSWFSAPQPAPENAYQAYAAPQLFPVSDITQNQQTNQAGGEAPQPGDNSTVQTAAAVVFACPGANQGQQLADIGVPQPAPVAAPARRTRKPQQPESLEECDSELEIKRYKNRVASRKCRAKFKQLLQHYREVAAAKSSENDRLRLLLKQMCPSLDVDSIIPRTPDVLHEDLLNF

[7] = biological target: T4, Epstein-Barr nuclear antigen 1 (Epstein-Barr virus (strain B95-8) (HHV-4) (Human herpesvirus 4), UniProt P03211); test: EBNA-1 inhibitors, dose response, biochemical, fluorescence polarization, 1536-well (AID 2381); set-up: species or system human gammaherpesvirus 4;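 also: fluorescence polarization of a Cy5 DNA probe bound by EBNA-1 protein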
T4 sequence (P03211 whole entry): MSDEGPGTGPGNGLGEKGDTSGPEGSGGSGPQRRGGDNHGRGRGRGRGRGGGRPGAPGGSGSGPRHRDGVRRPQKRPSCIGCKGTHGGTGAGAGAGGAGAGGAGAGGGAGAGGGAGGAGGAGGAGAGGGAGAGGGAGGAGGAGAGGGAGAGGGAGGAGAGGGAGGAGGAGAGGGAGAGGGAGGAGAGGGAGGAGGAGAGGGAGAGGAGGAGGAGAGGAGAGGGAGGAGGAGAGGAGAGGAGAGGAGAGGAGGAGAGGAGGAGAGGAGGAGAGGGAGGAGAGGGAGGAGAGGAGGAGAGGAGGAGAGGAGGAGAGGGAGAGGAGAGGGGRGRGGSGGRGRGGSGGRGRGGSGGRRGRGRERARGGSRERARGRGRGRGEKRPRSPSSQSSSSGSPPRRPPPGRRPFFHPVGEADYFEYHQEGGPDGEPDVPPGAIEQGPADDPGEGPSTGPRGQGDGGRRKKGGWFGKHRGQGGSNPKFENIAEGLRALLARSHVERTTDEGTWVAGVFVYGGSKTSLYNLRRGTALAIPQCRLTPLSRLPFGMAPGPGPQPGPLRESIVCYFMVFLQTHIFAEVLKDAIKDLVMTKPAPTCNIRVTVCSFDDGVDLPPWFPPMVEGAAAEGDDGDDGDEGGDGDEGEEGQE

[8] = biological target: T5, Replicative DNA helicase DnaB (Mycobacterium tuberculosis, UniProt P9WMR3); test: DnaB intein splicing inhibitors, dose response, biochemical, cell-free fluorescence (AID 449749); type: functional
T5 sequence (P9WMR3 whole entry): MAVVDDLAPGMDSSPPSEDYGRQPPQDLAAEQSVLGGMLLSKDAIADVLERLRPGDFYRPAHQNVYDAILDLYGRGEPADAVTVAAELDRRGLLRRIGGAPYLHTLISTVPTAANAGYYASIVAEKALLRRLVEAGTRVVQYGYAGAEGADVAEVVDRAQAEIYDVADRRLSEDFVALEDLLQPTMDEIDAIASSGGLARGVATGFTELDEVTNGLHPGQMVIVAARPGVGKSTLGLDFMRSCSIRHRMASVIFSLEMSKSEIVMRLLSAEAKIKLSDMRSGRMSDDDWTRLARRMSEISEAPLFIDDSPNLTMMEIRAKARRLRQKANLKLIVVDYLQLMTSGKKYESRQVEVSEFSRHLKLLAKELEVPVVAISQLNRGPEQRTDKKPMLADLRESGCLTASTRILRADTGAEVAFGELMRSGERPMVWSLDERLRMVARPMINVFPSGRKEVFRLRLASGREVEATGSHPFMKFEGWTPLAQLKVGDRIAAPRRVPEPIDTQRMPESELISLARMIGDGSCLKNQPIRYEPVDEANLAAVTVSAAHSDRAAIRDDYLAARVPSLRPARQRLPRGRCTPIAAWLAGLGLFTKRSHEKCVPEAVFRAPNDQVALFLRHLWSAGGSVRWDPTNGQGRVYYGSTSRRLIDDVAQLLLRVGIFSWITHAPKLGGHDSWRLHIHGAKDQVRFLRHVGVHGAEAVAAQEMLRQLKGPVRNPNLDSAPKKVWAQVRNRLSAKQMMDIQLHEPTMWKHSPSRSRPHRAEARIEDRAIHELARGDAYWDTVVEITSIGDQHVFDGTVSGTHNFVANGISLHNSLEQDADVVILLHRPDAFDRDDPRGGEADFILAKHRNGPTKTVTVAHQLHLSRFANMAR

Genome polyprotein = Genome polyprotein (dengue virus type 2, UniProt P29990); test: Dengue-2 NS5 methyltransferase inhibitors, primary screen, biochemical, confirmation dose response (AID 588689); type: functional
Chain of Genome polyprotein (P29990 2492-3391 limits assumed): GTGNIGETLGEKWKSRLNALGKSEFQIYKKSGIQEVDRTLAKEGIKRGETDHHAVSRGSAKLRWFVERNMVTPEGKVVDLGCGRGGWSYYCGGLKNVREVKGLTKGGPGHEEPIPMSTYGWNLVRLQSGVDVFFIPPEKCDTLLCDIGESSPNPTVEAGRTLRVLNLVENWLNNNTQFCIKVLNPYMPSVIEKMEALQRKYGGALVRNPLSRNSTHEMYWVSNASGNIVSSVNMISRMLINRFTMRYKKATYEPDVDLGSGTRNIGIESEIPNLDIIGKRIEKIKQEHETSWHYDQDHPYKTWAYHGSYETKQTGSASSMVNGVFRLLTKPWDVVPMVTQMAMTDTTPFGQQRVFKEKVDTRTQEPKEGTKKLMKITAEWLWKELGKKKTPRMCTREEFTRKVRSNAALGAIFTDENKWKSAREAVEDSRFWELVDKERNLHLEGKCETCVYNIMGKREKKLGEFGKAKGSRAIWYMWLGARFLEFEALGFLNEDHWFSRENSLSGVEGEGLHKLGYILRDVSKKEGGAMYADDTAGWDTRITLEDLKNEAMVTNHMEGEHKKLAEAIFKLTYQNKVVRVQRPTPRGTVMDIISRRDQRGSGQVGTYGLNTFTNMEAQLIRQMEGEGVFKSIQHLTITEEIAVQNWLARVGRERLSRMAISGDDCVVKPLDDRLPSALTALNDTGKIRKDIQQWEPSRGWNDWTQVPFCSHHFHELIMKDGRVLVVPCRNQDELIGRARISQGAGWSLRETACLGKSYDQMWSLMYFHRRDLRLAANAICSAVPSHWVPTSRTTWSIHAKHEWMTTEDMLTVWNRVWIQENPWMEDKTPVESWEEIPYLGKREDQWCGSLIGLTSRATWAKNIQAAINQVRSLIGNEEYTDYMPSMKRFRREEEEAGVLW

Protein RecA = biological target: T6, Protein RecA (Mycobacterium tuberculosis, UniProt P9WHJ3); test: Fluorescence Cell-Free Homogeneous Dose Retest to Identify Inhibitors of RecA-Intein Splicing Activity. [Related pubchem assays (depositor defined):AID2097, AID2223, AID489010, AID492950]; type: functional
T6 sequence (P9WHJ3 whole entry): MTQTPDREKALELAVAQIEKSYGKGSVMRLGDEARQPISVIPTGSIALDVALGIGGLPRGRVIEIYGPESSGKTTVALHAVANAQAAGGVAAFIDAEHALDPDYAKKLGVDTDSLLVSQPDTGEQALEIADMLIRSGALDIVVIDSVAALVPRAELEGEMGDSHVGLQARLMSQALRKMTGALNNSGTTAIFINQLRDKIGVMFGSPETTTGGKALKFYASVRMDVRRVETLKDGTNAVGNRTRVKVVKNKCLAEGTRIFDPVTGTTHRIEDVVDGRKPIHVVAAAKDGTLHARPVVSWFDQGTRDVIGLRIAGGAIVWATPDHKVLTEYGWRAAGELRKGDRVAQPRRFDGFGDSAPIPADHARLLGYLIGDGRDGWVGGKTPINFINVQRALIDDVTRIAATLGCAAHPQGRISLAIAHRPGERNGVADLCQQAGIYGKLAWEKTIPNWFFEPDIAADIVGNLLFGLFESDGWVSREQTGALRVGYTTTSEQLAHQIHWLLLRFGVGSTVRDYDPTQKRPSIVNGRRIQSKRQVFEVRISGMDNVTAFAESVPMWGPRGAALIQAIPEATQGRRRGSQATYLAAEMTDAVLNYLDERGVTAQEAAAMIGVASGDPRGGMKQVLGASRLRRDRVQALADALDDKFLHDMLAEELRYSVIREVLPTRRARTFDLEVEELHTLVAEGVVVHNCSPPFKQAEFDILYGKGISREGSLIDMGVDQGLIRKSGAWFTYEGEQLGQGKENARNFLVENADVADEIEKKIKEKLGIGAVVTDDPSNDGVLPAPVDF

[9] = biological target: Voltage-gated inwardly rectifying potassium channel KCNH2 (Homo sapiens, UniProt Q12809); test: hERG protection from proarrhythmic block, potency, dose response, cell-based, thallium flux (AID 2121); type: ADME
Chain of Voltage-gated inwardly rectifying potassium channel KCNH2 (Q12809 whole entry): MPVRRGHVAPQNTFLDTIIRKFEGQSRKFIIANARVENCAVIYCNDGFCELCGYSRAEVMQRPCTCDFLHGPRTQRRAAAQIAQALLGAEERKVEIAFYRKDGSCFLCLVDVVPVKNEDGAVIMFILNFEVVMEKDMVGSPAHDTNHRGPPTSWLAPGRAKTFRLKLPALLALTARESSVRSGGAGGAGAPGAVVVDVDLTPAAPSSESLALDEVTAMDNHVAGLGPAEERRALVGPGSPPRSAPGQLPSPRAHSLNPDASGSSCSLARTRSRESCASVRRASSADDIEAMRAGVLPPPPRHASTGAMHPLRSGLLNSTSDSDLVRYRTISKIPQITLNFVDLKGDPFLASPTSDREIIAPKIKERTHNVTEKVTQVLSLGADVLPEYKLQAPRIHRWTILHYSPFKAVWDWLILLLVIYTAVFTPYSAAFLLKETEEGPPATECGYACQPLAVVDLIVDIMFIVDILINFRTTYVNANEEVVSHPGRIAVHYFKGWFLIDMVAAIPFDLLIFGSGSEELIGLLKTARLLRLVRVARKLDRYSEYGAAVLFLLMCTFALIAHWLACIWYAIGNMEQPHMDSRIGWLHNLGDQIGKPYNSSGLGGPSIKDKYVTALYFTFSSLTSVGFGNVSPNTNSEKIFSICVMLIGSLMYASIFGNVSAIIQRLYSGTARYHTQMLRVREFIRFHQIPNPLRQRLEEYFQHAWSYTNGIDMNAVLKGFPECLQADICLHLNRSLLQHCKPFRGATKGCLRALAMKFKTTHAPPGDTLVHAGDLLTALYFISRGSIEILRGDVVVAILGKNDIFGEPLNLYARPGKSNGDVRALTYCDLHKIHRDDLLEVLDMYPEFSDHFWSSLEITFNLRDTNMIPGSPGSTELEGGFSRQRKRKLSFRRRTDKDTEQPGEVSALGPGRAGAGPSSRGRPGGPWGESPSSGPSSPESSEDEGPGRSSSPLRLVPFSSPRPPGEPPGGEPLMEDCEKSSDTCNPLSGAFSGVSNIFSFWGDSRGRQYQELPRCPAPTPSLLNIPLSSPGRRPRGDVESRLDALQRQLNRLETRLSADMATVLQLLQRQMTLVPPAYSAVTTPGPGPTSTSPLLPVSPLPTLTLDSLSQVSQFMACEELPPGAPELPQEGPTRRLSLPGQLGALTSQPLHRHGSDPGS

Chain of Glyceraldehyde-3-phosphate dehydrogenase (P04406 whole entry): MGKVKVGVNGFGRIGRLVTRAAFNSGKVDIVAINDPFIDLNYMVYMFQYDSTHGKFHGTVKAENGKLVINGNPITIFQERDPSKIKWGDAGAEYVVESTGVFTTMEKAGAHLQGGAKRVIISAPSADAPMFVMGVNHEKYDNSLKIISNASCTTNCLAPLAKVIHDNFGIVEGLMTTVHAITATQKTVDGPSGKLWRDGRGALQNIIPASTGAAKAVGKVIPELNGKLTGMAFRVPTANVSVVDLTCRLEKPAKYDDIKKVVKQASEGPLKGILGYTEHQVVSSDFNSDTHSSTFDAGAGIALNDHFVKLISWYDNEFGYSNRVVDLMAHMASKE
Chain of Cytochrome P450 2D6 (P10635 whole entry): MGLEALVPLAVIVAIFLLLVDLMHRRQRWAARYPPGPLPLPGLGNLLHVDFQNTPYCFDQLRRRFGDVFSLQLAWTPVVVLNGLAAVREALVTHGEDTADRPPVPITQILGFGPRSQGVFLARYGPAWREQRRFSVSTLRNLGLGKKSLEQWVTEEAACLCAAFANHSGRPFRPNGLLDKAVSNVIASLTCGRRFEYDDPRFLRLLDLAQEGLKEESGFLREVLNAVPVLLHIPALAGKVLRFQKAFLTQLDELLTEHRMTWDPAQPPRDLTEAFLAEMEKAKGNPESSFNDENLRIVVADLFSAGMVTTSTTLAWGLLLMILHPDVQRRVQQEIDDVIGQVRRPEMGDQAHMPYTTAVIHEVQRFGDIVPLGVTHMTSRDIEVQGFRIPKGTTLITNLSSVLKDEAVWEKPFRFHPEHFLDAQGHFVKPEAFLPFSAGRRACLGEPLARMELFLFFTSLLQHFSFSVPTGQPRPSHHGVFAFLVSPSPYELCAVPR

With `CCCCCCCCCCCCC/C=C\[C@H](O)[C@H](N)CO` the AC50 (Cytochrome P450 2D6) was 12.6 µM (inconclusive).

With `O=C1C(Cl)=C(N2CCN(CCO)CC2)C(=O)N1c1ccc(Cl)c(Cl)c1` the IC50 [1] was > 100 µM (not active), the IC50 (Bcl-2-related protein A1 [2]) was 0.59 µM (active) and the IC50 (Bcl-2-related protein A1 [3]) was 0.556 µM (active).

With `O=C1CN(S(=O)(=O)c2ccc(F)cc2)CC(=O)N1CCc1ccccc1` the EC50 (Mucolipin-3) was 6.15 µM (active) and the EC50 (Ion channel NompC) was > 29.9 µM (not active).

With `c1ccc2c(C[n+]3csc4ccccc43)cccc2c1` the EC50 [4] was 22.3 µM (active), the EC50 (Mucolipin-3) was > 29.9 µM (not active) and the EC50 (Ion channel NompC) was > 29.9 µM (not active). For the same compound, the EC50 [5] was 0.898 µM (active).

With `O=C(Nc1ccc(-c2nc3ccccc3o2)cc1)c1ccc(N2C(=O)C3C4C=CC(C4)C3C2=O)cc1` (stereo not given) the IC50 [6] was > 111 µM (not active) and the IC50 [7] was 5.35 µM (active).

In the case of `O=C1C(Cl)=C(N2CCOCC2)C(=O)N1c1ccccc1Cl`, the IC50 [1] was > 10 µM (inconclusive), the IC50 (Bcl-2-related protein A1 [2]) was 5.83 µM (active) and the IC50 (Bcl-2-related protein A1 [3]) was > 100 µM (not active). The AC50 [8] was 5.28 µM (active), the IC50 (Genome polyprotein) was 23.3 µM (active) and the EC50 (Protein RecA) was 2.09 µM (active).

In the case of `CCOC(=O)Cc1csc(NC(=S)NC(=O)C(C)(C)C)n1`, the EC50 [9] was 2.51 µM (active).

For `CC1CN(C(=S)NC(=O)c2ccc(Cl)cc2)CC(C)O1` (stereo not given), the EC50 [9] was 5.66 µM (active).
